Experimental data published in PubChem BioAssay (NCI).
Values joined by “and” are separate entries in the source; they are usually repeats but may differ in a detail not shown here. Identical values can stand only once.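 Tested at 5 concentrations; 48 h exposure; 96-well plates; endpoints linearly interpolated, else capped at highest concentration. At the GI50, growth is halved. TGI marks complete inhibition of growth.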

Key:
Assay in all cases: NCI tumour cell line growth inhibition, 48 h
OVCAR-5 ovarian = tested on: OVCAR-5 ovarian
SNB-19 CNS = tested on: SNB-19 CNS
U251 CNS = tested on: U251 CNS
OVCAR-4 ovarian = tested on: OVCAR-4 ovarian
MOLT-4 leukemia = tested on: MOLT-4 leukemia
MDA-MB-231 breast = tested on: MDA-MB-231 breast
MDA-MB-435 = tested on: MDA-MB-435
786-0 renal = tested on: 786-0 renal
UACC-257 melanoma = tested on: UACC-257 melanoma
HL-60(TB) leukemia = tested on: HL-60(TB) leukemia

Row | Compound | GI50 (OVCAR-5 ovarian) | TGI (OVCAR-5 ovarian) | GI50 (SNB-19 CNS) | TGI (SNB-19 CNS) | GI50 (U251 CNS) | TGI (U251 CNS) | GI50 (OVCAR-4 ovarian) | TGI (OVCAR-4 ovarian) | GI50 (MOLT-4 leukemia) | TGI (MOLT-4 leukemia) | GI50 (MDA-MB-231 breast) | TGI (MDA-MB-231 breast) | GI50 (MDA-MB-435) | TGI (MDA-MB-435) | GI50 (786-0 renal) | TGI (786-0 renal) | GI50 (UACC-257 melanoma) | TGI (UACC-257 melanoma) | GI50 (HL-60(TB) leukemia) | TGI (HL-60(TB) leukemia)
1 | O=C(O)CCCCCNCc1cc2cc3c(cc2c2cc(OCc4ccccc4)ccc12)OCO3 | 2.33 µM | 5.23 µM | 4.05 µM | 20.7 µM | 1.73 µM | 3.28 µM | 3.26 µM | 12.6 µM | 2.23 µM | 24.2 µM | 1.88 µM | 3.88 µM | 1.78 µM | 3.3 µM | 1.68 µM | 3.25 µM | 3.38 µM | 10.9 µM | 2.32 µM | 6.85 µM
2 | NS(=O)(=O)c1cccc(Nc2cc(-c3ccc(F)cc3)[nH]n2)c1 | > 25 µM | > 25 µM | > 25 µM | > 25 µM | 16.5 µM | > 25 µM | > 22 µM | > 25 µM | > 25 µM | > 25 µM | > 25 µM | > 25 µM | > 25 µM | > 25 µM | 23.2 µM | > 25 µM | > 25 µM | > 25 µM | > 25 µM | > 25 µM
3 | COc1cc(/C=N/NC(=O)c2cnn3c2NC(c2ccccc2)C3)ccc1OCc1ccccc1 (stereo unspecified) | 2.11 µM | 10.6 µM | 1.25 µM | 13.7 µM | 1.14 µM | 3.07 µM | 1.2 µM | 3.08 µM | 1.14 µM | 12.2 µM | 2.17 µM | 9.39 µM | 0.158 µM | 0.95 µM | 1.16 µM | 4.03 µM | 1.46 µM | 11 µM | 0.328 µM | 7.54 µM
4 | CN(N=O)c1ccc(/C=C/c2ccnc3ccccc23)cc1 |  | > 100 µM |  | > 100 µM |  | > 100 µM |  | > 100 µM |  | > 100 µM |  | > 100 µM |  | > 100 µM |  | > 100 µM |  | > 100 µM |  | > 100 µM
5 | O=C1OC(c2ccccc2)=N/C1=C\c1ccccc1 |  | > 100 µM |  | > 100 µM |  | > 100 µM |  | > 100 µM |  | 85.5 µM and > 100 µM |  | > 100 µM |  | > 100 µM | 44.6 µM and > 100 µM | > 100 µM |  | 59.7 µM and > 100 µM |  | 99.2 µM and 84.4 µM
6 | CSc1ccc(-c2cn3ccsc3n2)cc1 | 38.9 µM | > 100 µM | 43.5 µM | > 100 µM | 7.65 µM | > 100 µM | 9.15 µM | > 100 µM | 5.48 µM | > 100 µM | 31.8 µM | > 100 µM | 12.6 µM | > 100 µM | 32.3 µM | > 100 µM | 28.7 µM | > 100 µM | 2.42 µM | > 50 µM
7 | COc1oc(C2C/C(=C/C(C)=C/C(C)=C/C(C)=C/c3ccc([N+](=O)[O-])cc3)CO2)c(C)c(=O)c1C (stereo unspecified) |  | > 100 µM |  | 73.7 µM |  | 31.5 µM |  | > 42.2 µM |  | 10.2 µM |  | 38.9 µM |  | 42.4 µM |  | 21.6 µM |  | 66 µM |  | 8.13 µM
8 | O=C(NOCCO)c1ccc2cncn2c1Nc1ccc(I)cc1F | 0.00313 µM and < 0.01 µM | > 100 µM | > 10 µM and 1.99 µM | > 100 µM | 0.722 µM | > 90.1 µM | > 10 µM and 4.29 µM | > 100 µM | > 10 µM and 35.1 µM | > 100 µM | 0.0343 µM and 0.0283 µM | > 100 µM | 0.00756 µM and < 0.01 µM | > 100 µM | > 10 µM and 27.1 µM | > 100 µM | 0.00234 µM and < 0.01 µM | 0.0127 µM and < 0.0141 µM | 0.00191 µM and < 0.01 µM | > 100 µM
9 | CCCCCCCCCC(=O)Oc1ccc(/C(=C(/C)c2ccccc2)c2ccc(OCCN3CCCC3)cc2)cc1 | 8.56 µM | 16.5 µM | 9.04 µM | 17.7 µM | 8.01 µM | 15.4 µM | 7.39 µM | 14.9 µM | 8.61 µM | 20.3 µM | 10.2 µM | 20.2 µM | 7.47 µM | 14.1 µM | 8.77 µM | 16.8 µM | 9.23 µM | 16.8 µM | 9.24 µM | 18.7 µM
10 | CC1=C(C(=S)Nc2ccc(Cl)c(C(=O)OC(C)C)c2)SCCO1 |  | > 100 µM |  | 44.5 µM |  | 36.2 µM |  | 43.5 µM |  | 46.6 µM |  | 33.2 µM |  | 42.7 µM |  | 30.2 µM |  | 47 µM |  | 37.2 µM
11 | CC(C)(C)n1cc(-c2ccnc(NCCCNS(=O)(=O)c3cccc4ccccc34)c2)c(-c2cccc(O)c2)n1 | 1.98 µM | 4.06 µM | 2.63 µM | 7.21 µM | 1.73 µM | 3.87 µM | 1.92 µM | 4.75 µM | 2 µM | 5.5 µM | 2.32 µM | 5.64 µM | 1.76 µM | 3.37 µM | 2.09 µM | 5.12 µM | 2.07 µM | 4.39 µM | 2.68 µM | 7.26 µM
